From ChEMBL document CHEMBL1201862, “PubChem BioAssay data set” (2004)
Calls of active or inactive are those of the source.

How the values were obtained:
CHO-K1 = experiment: Counterscreen for antagonists of the orexin 1 receptor (OX1R; HCRTR1): Homogeneous time resolved fluorescence (HTRF)-based cell-based dose response assay to identify antagonists of the parental CHO-K1 cell line. [Related pubchem assays (depositor defined):AID434989, AID435008, AID463079, AID485270, AID492963, AID492964, AID492965, AID493232, AID504699, AID504701]; format: functional; settings: Cricetulus griseus;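 also: potency for inhibition of ATP-stimulated IP1 production as antagonists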
[1] = Counterscreen for antagonists of the orexin 1 receptor (OX1R; HCRTR1): Fluorescence-based cell-based high throughput dose response assay to identify antagonists of the parental CHO cell line. [Related pubchem assays (depositor defined):AID434989, AID435008, AID463079, AID485270, AID492963, AID492964, AID492965, AID493232, AID504699, AID504701]; format: functional
[2] = molecular target: T1, Orexin/Hypocretin receptor type 1 (Homo sapiens, UniProt O43613); experiment: Homogeneous Time Resolved Fluorescence (HTRF)-based cell-based high throughput dose response assay for antagonists of the orexin 1 receptor (OX1R; HCRTR1). [Related pubchem assays (depositor defined):AID434989, AID435008, AID463079, AID485270, AID492963, AID492964, AID492965, AID493232, AID504717, AID504718]; format: functional
T1 sequence (O43613 whole entry): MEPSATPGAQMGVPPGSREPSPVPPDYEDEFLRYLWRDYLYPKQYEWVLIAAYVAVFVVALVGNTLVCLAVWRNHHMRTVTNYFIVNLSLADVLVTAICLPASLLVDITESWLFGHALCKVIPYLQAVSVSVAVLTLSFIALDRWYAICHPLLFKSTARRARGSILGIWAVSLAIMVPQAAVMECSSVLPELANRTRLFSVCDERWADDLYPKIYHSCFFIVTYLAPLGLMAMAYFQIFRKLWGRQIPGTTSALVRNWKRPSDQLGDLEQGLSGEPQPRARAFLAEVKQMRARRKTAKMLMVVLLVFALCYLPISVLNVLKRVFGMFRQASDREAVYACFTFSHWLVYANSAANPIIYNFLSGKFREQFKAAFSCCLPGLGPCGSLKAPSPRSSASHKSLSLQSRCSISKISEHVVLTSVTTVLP

[3] = molecular target: T1, Orexin/Hypocretin receptor type 1; experiment: Fluorescence-based cell-based high throughput dose response assay for antagonists of the orexin 1 receptor (OX1R; HCRTR1). [Related pubchem assays (depositor defined):AID434989, AID435008, AID463079, AID485270, AID492963, AID492964, AID492965, AID493232, AID504717, AID504718]; format: functional
Orexin receptor type 2 [4] = molecular target: T2, Orexin receptor type 2 (Homo sapiens, UniProt O43614); experiment: Counterscreen assay for antagonists of the orexin 1 receptor (OX1R; HCRTR1): Fluorescence-based cell-based dose response assay for antagonists of the orexin 2 receptor (OX2R; HCRTR2), run by assay provider.; format: functional
T2 sequence (O43614 whole entry): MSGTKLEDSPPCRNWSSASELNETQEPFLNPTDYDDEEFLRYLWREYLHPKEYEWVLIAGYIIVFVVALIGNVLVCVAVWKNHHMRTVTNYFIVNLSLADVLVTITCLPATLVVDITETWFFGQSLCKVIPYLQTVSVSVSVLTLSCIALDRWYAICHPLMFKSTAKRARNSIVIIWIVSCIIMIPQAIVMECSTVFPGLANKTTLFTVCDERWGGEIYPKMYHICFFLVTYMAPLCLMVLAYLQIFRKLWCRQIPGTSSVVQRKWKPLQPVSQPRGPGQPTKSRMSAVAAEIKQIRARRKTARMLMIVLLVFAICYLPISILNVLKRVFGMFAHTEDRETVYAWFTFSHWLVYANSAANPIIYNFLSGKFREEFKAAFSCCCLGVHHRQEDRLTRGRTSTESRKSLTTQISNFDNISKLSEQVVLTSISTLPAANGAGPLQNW

Orexin receptor type 2 [5] = molecular target: T2, Orexin receptor type 2; experiment: Counterscreen assay for antagonists of the orexin 1 receptor (OX1R; HCRTR1): Homogeneous Time Resolved Fluorescence (HTRF)-based cell-based dose response assay for antagonists of the orexin 2 receptor (OX2R; HCRTR2), run by assay provider.; format: functional
[6] = molecular target: Induced myeloid leukemia cell differentiation protein Mcl-1 (Homo sapiens, UniProt Q07820); format: functional
Chain of Induced myeloid leukemia cell differentiation protein Mcl-1 (Q07820 whole entry): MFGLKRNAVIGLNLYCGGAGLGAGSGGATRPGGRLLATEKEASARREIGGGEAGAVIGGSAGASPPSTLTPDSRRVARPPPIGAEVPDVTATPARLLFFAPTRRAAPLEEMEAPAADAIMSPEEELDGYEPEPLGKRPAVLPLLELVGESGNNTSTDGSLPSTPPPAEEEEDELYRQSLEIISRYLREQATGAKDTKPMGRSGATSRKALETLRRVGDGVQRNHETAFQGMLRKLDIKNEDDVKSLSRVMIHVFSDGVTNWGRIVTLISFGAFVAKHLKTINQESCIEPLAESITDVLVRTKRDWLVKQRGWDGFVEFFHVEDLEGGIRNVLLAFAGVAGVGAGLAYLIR

Cysteine protease ATG4B = Cysteine protease ATG4B (Homo sapiens, UniProt Q9Y4P1); format: functional;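 also: Fluorescence-based dose-response confirmation assay measuring inhibition of ATG4B activity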
Chain of Cysteine protease ATG4B (Q9Y4P1 whole entry): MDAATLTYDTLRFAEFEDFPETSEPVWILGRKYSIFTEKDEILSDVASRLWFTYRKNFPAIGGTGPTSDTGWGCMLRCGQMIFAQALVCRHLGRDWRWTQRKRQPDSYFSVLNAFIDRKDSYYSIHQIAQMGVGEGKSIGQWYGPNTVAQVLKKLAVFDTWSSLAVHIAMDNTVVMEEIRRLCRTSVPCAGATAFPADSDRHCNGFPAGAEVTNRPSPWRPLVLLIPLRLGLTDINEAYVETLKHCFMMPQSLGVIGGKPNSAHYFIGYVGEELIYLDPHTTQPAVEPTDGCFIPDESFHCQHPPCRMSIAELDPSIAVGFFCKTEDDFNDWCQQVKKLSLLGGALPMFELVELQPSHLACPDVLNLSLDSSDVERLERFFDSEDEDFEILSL

Phospholipase A2 = Phospholipase A2 (Homo sapiens, UniProt P04054); format: functional;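 also: confirmatory dose-response counterscreen on phospholipase A2, testing hits that came from an ultra-high-throughput screen for ATG4B inhibitors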
Chain of Phospholipase A2 (P04054 whole entry): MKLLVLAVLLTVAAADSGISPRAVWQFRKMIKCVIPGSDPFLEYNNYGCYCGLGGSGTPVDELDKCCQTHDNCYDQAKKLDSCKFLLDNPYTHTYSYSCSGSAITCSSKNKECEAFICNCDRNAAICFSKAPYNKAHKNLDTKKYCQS

[7] = insulin promoter down-regulators in MIN6 cells, imaging, high-content screening, mouse beta cells (AID 1628); format: functional
BJ [8] = experiment: cytotoxicity toward BJ-TERT fibroblasts, dose response, cell-based, RAS-independent, luminescence (AID 1933); format: functional; settings: Homo sapiens
[9] = cytotoxicity in MIN6 insulinoma cells, dose response, cytotoxicity control, cell-based, mouse insulinoma (AID 2122); format: functional;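 also: confirmatory high-throughput counterscreen run to flag cytotoxic compounds; mouse MIN-6 beta cells carrying an insulin promoter eGFP reporter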
BJ [10] = experiment: cells; format: functional, cell-based; settings: Homo sapiens
BJ [11] = experiment: cytotoxicity toward BJ-TERT-LT-ST fibroblasts, dose response, cell-based, RAS-independent, luminescence (AID 1935); format: functional; settings: Homo sapiens;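 also: BJ fibroblasts immortalized with TERT plus LT and ST oncogenes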
[12] = cytotoxicity toward DRD oncogenic fibroblasts, dose response, cell-based, non-viral oncogenic, luminescence (AID 1934); format: functional; settings: Homo sapiens
[13] = THP-1 cell cytotoxicity, dose response, cytotoxicity control for non-replicating M. tuberculosis project (AID 489025); format: functional
[14] = HepG2 cell cytotoxicity, dose response, cytotoxicity control for non-replicating M. tuberculosis project (AID 489018); format: functional; settings: Mycobacterium tuberculosis
[15] = molecular target: T3, Ubiquitin-conjugating enzyme E2 N (Homo sapiens, UniProt P61088); format: functional;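 also: Dose-response confirmation in a TR-FRET assay detecting UBC13-driven polyubiquitin chain formation, inhibition measured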
T3 sequence (P61088 whole entry): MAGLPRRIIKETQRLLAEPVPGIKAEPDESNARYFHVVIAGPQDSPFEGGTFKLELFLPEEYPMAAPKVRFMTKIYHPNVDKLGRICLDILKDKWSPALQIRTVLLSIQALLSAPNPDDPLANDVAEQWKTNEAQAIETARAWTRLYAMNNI

[16] = Vero E6 cell cytotoxicity, dose response, cytotoxicity control for non-replicating M. tuberculosis project, secondary assay (AID 492998); format: functional, VeroE6; settings: Vero C1008
cells = format: functional
BJ [17] = experiment: cytotoxicity toward Ras-transformed BJeLR fibroblasts, dose response, cell-based, alamar blue fluorescence, cherrypicked samples (AID 2631); format: functional; settings: Homo sapiens;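 also: confirmatory dose-response assay in RAS-dependent BJ fibroblasts engineered with TERT, LT and ST, with cytotoxicity read by fluorescence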
[18] = molecular target: T4, High affinity choline transporter 1 (Homo sapiens, UniProt Q9GZV3); experiment: CHT activators, dose response, cell-based, 10-point CRC, membrane potential dye (AID 602376); format: functional
T4 sequence (Q9GZV3 whole entry): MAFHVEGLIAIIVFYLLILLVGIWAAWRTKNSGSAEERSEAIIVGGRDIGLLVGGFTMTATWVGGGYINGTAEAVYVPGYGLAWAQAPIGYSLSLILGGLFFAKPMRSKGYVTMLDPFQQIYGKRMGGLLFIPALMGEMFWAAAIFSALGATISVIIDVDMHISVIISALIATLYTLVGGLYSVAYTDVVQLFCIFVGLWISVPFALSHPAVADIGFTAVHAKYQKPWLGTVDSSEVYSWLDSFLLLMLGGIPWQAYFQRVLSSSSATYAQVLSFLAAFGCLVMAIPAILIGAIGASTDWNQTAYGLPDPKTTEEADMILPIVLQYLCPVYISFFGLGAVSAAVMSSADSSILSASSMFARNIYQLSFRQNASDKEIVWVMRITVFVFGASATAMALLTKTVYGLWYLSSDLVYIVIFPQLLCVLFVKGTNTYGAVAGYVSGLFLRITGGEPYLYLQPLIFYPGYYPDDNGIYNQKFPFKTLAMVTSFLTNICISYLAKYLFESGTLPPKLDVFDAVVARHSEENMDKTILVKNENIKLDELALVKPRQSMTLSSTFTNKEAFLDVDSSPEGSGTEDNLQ

[19] = Fluorescence-based cell-based high throughput dose response assay for inhibitors of the interaction of nucleotide-binding oligomerization domain containing 2 (NOD2) and the receptor-interacting serine-threonine kinase 2 (RIPK2).; format: functional; settings: Homo sapiens
Beta Lactamase = Beta Lactamase (Pseudomonas aeruginosa, UniProt Q932Y6); experiment: beta-lactamase reporter inhibitor potency, dose response, artefact control for NOD2-RIPK2 interaction inhibitor project, BLA reporter cells, FRET fluorescence (AID 651552); format: functional, cell-based
Chain of Beta Lactamase (Q932Y6 whole entry): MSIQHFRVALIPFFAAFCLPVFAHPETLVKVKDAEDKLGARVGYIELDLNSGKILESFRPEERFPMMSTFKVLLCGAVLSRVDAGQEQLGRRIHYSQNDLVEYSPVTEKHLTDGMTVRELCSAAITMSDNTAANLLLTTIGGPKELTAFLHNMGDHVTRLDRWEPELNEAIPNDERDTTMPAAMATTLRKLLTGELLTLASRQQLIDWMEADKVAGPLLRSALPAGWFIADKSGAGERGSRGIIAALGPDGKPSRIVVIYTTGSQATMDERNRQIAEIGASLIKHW

Genome polyprotein = Genome polyprotein (dengue virus type 2, UniProt P29990); experiment: Dengue-2 NS5 methyltransferase inhibitors, primary screen, biochemical, confirmation dose response (AID 588689); format: functional
Chain of Genome polyprotein (P29990 2492-3391 limits assumed): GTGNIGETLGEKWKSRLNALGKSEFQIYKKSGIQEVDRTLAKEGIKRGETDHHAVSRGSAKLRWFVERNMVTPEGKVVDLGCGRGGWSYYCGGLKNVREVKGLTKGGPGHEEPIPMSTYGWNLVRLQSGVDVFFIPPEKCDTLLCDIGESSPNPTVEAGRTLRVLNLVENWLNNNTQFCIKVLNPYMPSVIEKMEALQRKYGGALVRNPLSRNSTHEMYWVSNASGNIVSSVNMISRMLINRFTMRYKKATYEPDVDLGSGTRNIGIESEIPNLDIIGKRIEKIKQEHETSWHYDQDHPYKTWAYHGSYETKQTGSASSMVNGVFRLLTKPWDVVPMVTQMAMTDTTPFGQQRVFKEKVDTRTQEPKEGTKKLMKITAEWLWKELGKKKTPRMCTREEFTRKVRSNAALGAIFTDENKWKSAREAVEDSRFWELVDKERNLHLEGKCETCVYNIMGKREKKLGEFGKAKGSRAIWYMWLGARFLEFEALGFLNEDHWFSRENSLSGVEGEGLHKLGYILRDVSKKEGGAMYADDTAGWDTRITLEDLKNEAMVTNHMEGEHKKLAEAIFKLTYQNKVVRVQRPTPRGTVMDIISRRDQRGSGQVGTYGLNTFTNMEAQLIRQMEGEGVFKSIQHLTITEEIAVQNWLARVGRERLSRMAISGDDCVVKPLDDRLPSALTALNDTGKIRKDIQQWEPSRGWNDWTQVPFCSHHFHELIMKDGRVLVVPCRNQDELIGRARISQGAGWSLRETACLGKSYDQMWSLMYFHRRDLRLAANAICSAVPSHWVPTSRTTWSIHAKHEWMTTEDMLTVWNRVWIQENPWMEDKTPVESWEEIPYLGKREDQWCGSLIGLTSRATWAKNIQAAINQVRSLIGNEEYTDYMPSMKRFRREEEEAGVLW

[20] = molecular target: Dual specificity tyrosine-phosphorylation-regulated kinase 1A (Rattus norvegicus, UniProt Q63470); format: biochemical, Homo sapiens
HEK293 = experiment: cells; format: functional, cell-based; settings: Homo sapiens
[21] = molecular target: T5, Nuclear receptor subfamily 0 group B member 1 (Homo sapiens, UniProt P51843); experiment: Luminescence-based cell-based high throughput dose response assay for inhibitors of the orphan nuclear receptor subfamily 0, group B, member 1 (DAX1; NR0B1). [Related pubchem assays (depositor defined):AID504766, AID504790]; format: functional
T5 sequence (P51843 whole entry): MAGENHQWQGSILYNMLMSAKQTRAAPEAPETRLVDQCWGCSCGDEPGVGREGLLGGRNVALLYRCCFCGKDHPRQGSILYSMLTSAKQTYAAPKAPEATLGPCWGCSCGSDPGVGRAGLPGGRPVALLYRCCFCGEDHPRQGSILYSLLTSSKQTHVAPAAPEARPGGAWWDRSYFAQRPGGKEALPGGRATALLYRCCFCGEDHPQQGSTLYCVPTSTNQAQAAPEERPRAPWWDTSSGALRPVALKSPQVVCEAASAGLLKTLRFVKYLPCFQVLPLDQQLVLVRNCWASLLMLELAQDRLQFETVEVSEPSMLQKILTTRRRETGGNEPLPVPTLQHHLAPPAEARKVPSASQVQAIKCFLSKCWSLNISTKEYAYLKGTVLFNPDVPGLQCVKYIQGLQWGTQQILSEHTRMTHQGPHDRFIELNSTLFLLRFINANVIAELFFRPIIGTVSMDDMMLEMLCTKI

Protein skinhead-1 = molecular target: T6, Protein skinhead-1 (Caenorhabditis elegans, UniProt P34707); format: functional
T6 sequence (P34707 whole entry): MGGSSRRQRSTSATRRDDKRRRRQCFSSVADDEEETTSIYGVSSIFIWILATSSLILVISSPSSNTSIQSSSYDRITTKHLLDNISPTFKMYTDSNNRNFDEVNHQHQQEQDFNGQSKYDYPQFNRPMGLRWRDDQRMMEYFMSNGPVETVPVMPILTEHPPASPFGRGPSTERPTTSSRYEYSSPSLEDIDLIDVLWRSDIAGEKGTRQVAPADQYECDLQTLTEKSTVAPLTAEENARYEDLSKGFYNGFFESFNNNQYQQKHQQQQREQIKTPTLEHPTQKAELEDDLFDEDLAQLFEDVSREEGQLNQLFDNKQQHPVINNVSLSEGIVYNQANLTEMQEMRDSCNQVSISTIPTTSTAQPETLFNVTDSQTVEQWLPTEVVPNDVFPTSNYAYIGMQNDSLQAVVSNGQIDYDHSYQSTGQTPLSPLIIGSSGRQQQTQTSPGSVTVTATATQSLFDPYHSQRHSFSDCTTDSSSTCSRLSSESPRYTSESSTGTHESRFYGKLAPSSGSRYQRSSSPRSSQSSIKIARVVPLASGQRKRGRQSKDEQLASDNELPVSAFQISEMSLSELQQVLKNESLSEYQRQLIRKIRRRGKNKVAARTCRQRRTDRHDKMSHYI

COc1ccc2c(Cl)c(C(=O)N/N=C/c3c(C)[nH]c4ccccc34)sc2c1
IC50 (CHO-K1): > 66.2 µM (inactive) | IC50 [1]: > 49.8 µM (inactive) | IC50 [2]: 2.04 µM (active) | IC50 [3]: 6.57 µM (active) | IC50 (Orexin receptor type 2 [4]): 23.2 µM (inactive) | IC50 (Orexin receptor type 2 [5]): > 50 µM (inactive)

Cc1ccc(/N=C2N=C(O)/C(=C/C=C/c3ccco3)S\2)cc1C
IC50 [6]: 13.4 µM (active) | IC50 (Cysteine protease ATG4B): 6.65 µM (active) | IC50 (Phospholipase A2): 5.94 µM (active)

CCCCCOc1ccc(Br)cc1/C(C)=N/NC1=NCCN1
IC50 [7]: 1.6 µM (active) | EC50 (BJ [8]): 2.99 µM (active) | IC50 [9]: 1.26 µM (active) | EC50 (BJ [10]): 8.5 µM (active) | EC50 (BJ [11]): 4.48 µM (inconclusive) | EC50 [12]: 5.8 µM (active) | CC50 [13]: 2.09 µM (active) | CC50 [14]: 11.3 µM (active) | IC50 [15]: > 20 µM (inactive) | CC50 [16]: 5.08 µM (active) | IC50 (cells): 21.4 µM (active) | EC50 (BJ [17]): 0.647 µM (active) | EC50 [18]: 14.8 µM (active) | IC50 [19]: 39.9 µM (inactive) | IC50 (Beta Lactamase): 49.8 µM (inactive)

NS(=O)(=O)c1ccc(N=Nc2c(O)c(C(=O)O)cc3ccccc23)cc1
IC50 (Genome polyprotein): > 100 µM (active) | AC50 [20]: 3.59 µM (active)

COc1ccc(-c2nc3ccccc3s2)cc1O
IC50 (CHO-K1): > 66.2 µM (inactive) | IC50 [1]: > 49.8 µM (inactive) | IC50 [2]: 3.25 µM (active) | IC50 [3]: 9.38 µM (active) | IC50 (Orexin receptor type 2 [4]): 56 µM (inactive) | IC50 (Orexin receptor type 2 [5]): 9.41 µM (active)

CCn1c(C)cc(C(=O)COC(=O)c2cccnc2SC)c1C
IC50 (HEK293): > 67.5 µM (inactive) | IC50 [21]: > 67.5 µM (inactive)

CC(=O)Nc1nc2ccc(Br)cc2s1
AC50 [20]: 3.33 µM (active) | IC50 (Protein skinhead-1): > 100 µM (inactive)

Cc1cc(OC(=O)c2cccs2)ccc1C(C)C
IC50 (Cysteine protease ATG4B): 5.44 µM (active) | IC50 (Phospholipase A2): 3.74 µM (active)

COc1cc(SC)ccc1C(=O)Nc1ccc2c(c1)OCO2
IC50 (HEK293): > 67.6 µM (inactive) | IC50 [21]: > 67.6 µM (inactive)

COc1ccc(C(CCNCc2ccc(OC)c(OC)c2)c2ccc(F)cc2)cc1 (stereo unspecified)
EC50 [18]: 20.9 µM (active)
